Holding throughout (test): microbe, parasite or virus in culture
What all share (assay type): cell-based, Hepatitis C virus (HCV)
Common to all, as to details: Replicon Assay A
In general terms: In antiviral work, replicon cells carry a viral genome segment that copies itself.

The test system of one assay is HCV replicon 1AY93H. The gist of the method:
(§1)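 HCV RNA levels were calculated from Ct values (minus intercept, divided by slope) of a Neo primer/probe standard curve, with cyclophilin quantified the same way. Cells were seeded at 2000/well and incubated with compound for 3 days in 5% serum and 0.5% DMSO.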

In a further assay the test system is HCV replicon 2B. Put shortly: as §1
The subject of another assay is HCV replicon 1A. The gist of the method:
as §1

Where [1] appears, read: read-out: 1A Y93H IC50, HCV replicon 1A Y93H.
[2] abbreviates: read-out: 2B IC50, HCV replicon 2B.
The mark [3] stands for this setting: Hepatitis C virus, read-out: 1A Y93H IC50, HCV replicon 1A Y93H.
Setting [4] is: Hepatitis C virus, read-out: 2B IC50, HCV replicon 2B.
Setting [5] is: Hepatitis C virus, HCV replicon 1A.
The mark [6] stands for this setting: read-out: 1A Y93H IC50, replicon 1AY93H.
Where [7] appears, read: Hepatitis C virus, read-out: 1A Y93H IC50 (nM), replicon 1AY93H.
[8] abbreviates: Hepatitis C virus, read-out: 2B IC50 (nM), replicon 2B.

SMILES strings stand for the structures. Where two headings read alike, the source gives them in different places.

A word on the IC50: it is the concentration at which inhibition is half-maximal.

Turning to `COC(=O)N[C@H](C(=O)N1CCC[C@H]1c1cnc(-c2ccc3c(c2)cc2n3C(c3cc4ccccc4s3)Oc3cc(-c4cnc([C@@H]5CCCN5C(=O)[C@@H](NC(=O)OC)C5CCOCC5)[nH]4)ccc3-2)[nH]1)C1CCOCC1` (single isomer, unassigned) [Compound 810], the 50% inhibitory concentration (IC50) in the assay with HCV replicon 1AY93H (setting [1]) was 0.018 nM; with HCV replicon 2B (setting [2]) it was 0.005 nM; in the assay with HCV replicon 1A (HCV replicon 1A), 0.004 nM.
In the case of `COC(=O)N[C@H](C(=O)N1CCC[C@H]1c1ncc(-c2cc(C)c3c(c2)OC(c2cc4c(s2)CCC4)n2c-3cc3cc(-c4cnc([C@@H]5CCCN5C(=O)[C@@H](NC(=O)OC)C5CCOCC5)[nH]4)ccc32)[nH]1)C(C)C` (single isomer, unassigned) [Compound 540], the concentration for half-maximal inhibition (IC50) with HCV replicon 1AY93H (setting [3]) amounted to 2.14 nM; in the assay with HCV replicon 2B (setting [4]), 0.147 nM; in the assay on HCV replicon 1A (setting [5]), 0.00859 nM.
With `COC(=O)NC(C(=O)N1[C@@H]2C[C@@H]2C[C@H]1c1ncc(-c2ccc3c(c2)cc2n3C(c3ccc(C(F)F)s3)Oc3cc(-c4cnc([C@@H]5CCCN5C(=O)[C@@H](NC(=O)OC)C(C)C)[nH]4)cc(F)c3-2)[nH]1)C1CCOC(C)(C)C1` (single isomer, unassigned) [Compound 414], the IC50 in the assay on HCV replicon 1AY93H (setting [1]) is 0.134 nM; with HCV replicon 2B (setting [2]), 0.457 nM; with HCV replicon 1A (setting [5]), 0.0022 nM.
As to `COC(=O)NC(C(=O)N1CCC[C@H]1c1ncc(-c2ccc3c(c2)cc2n3C(c3ccc(C4CC4)s3)Oc3cc(-c4cnc([C@@H]5CCCN5C(=O)[C@@H](NC(=O)OC)C(C)C)[nH]4)cc(F)c3-2)[nH]1)C1CCOC(C)(C)C1` (single isomer, unassigned) [Compound 220], the half-inhibitory concentration (IC50) in the assay on HCV replicon 1AY93H (setting [6]) was 0.52 nM; with HCV replicon 2B (read-out: 2B IC50, replicon 2B), 0.93 nM; in the assay with HCV replicon 1A (replicon 1A), 0.0021 nM.
With `COC(=O)N[C@H](C(=O)N1CCC[C@H]1c1nc(-c2ccc3c(c2)OC(c2ccc(C4CC4)s2)n2c-3cc3cc(-c4c[nH]c([C@@H]5CCCN5C(=O)[C@@H](NC(=O)OC)C5CCOCC5)n4)ccc32)c[nH]1)C1CCOCC1` (mixture of isomers) [Compound 728], the values for the IC50 with HCV replicon 1AY93H (setting [3]), in the assay on HCV replicon 2B (setting [4]) and with HCV replicon 1A (setting [5]) were 0.02 nM, 0.022 nM and 0.022 nM, respectively.
On to `COC(=O)N[C@H](C(=O)N1CCC[C@H]1c1ncc(-c2ccc3c(c2)OC(c2ccc(C4CC4)s2)n2c-3c(C)c3cc(-c4cnc([C@@H]5CCCN5C(=O)[C@@H](NC(=O)OC)C(C)C)[nH]4)ccc32)[nH]1)C(C)C` (single isomer, unassigned) [Compound 22], for which the IC50 turned out to be 1.38 nM with HCV replicon 1AY93H (setting [6]); 1.84 nM with HCV replicon 2B (read-out: 2B IC50, replicon 2B); 0.002 nM in the assay on HCV replicon 1A (replicon 1A).
The like results for `COC(=O)NC(C(=O)N1CCC[C@H]1c1ncc(-c2ccc3c(c2)cc2n3C(c3ccc(C4CC4)s3)Oc3cc(-c4cnc([C@@H]5C[C@@H](F)CN5C(=O)[C@@H](NC(=O)OC)C(C)C)[nH]4)cc(F)c3-2)[nH]1)C(C)(C)F` (single isomer, unassigned) [Compound 112] were, in that order, 0.23 nM, 7.07 nM and 0.0022 nM.
With `COC(=O)N[C@H](C(=O)N1CCC[C@H]1c1ncc(-c2cc(F)c3c(c2)OC(c2cc4c(s2)CCC4)n2c-3cc3cc(-c4cnc([C@@H]5CCCN5C(=O)[C@@H](NC(=O)OC)C5CCOCC5)[nH]4)ccc32)[nH]1)C(C)C` (single isomer, unassigned) [Compound 621], the figures for the IC50 in the assay with HCV replicon 1AY93H (setting [1]), in the assay on HCV replicon 2B (setting [2]) and in the assay on HCV replicon 1A (HCV replicon 1A) were 0.108 nM, 0.835 nM and 0.0031 nM, respectively.
Take `COC(=O)NC(C(=O)N1CCC[C@H]1c1ncc(-c2cc(F)c3c(c2)OC(c2ccc(C4CC4)s2)n2c-3cc3cc(-c4cnc([C@@H]5CCCN5C(=O)[C@@H](NC(=O)OC)C(C)C)[nH]4)ccc32)[nH]1)C(C)(C)F` (single isomer, unassigned) [Compound 70]: the IC50 was determined as 10.5 nM in the assay on HCV replicon 1AY93H (setting [6]); 24.2 nM in the assay with HCV replicon 2B (read-out: 2B IC50, replicon 2B); 0.0188 nM in the assay with HCV replicon 1A (Hepatitis C virus, replicon 1A).
As to `CCc1ccc(C2Oc3cc(-c4cnc([C@@H]5CCCN5C(=O)C(NC(=O)OC)C5CCOC(C)(C)C5)[nH]4)cc(F)c3-c3cc4cc(-c5cnc([C@@H]6CCCN6C(=O)C(NC(=O)OC)C6CCOC(C)(C)C6)[nH]5)ccc4n32)s1` (single isomer, unassigned) [Compound 297], the 50% inhibitory concentration (IC50) with HCV replicon 1AY93H (setting [6]) was 8.37 nM; in the assay on HCV replicon 2B (read-out: 2B IC50, replicon 2B), 6.68 nM; in the assay on HCV replicon 1A (replicon 1A) it was 0.0889 nM.
Consider `COC(=O)N[C@H](C(=O)N1CCC[C@H]1c1ncc(-c2cc(F)c3c(c2)OC(c2cc4c(s2)CCCO4)n2c-3cc3cc(-c4cnc([C@@H]5CCCN5C(=O)[C@@H](NC(=O)OC)C5CCOC(C)(C)C5)[nH]4)ccc32)[nH]1)C(C)C` (single isomer, unassigned) [Compound 412], for which the values for the half-maximal inhibitory concentration (IC50) in the assay with HCV replicon 1AY93H (setting [1]), in the assay on HCV replicon 2B (setting [2]) and with HCV replicon 1A (HCV replicon 1A) were 0.008 nM, 0.005 nM and 0.0094 nM, respectively.
With `COC(=O)N[C@H](C(=O)N1CCC[C@H]1c1ncc(-c2cc(F)c3c(c2)OC(c2cc4nccnc4s2)n2c-3cc3cc(-c4cnc([C@@H]5CCCN5C(=O)[C@@H](NC(=O)OC)C(C)C)[nH]4)ccc32)[nH]1)C(C)C` (single isomer, unassigned) [Compound 47], the IC50 was 1.54 nM in the assay with HCV replicon 1AY93H (setting [6]); 0.77 nM with HCV replicon 2B (read-out: 2B IC50, replicon 2B); 0.0016 nM with HCV replicon 1A (Hepatitis C virus, replicon 1A).
As for `COC(=O)N[C@H](C(=O)N1CCC[C@H]1c1ncc(-c2cc(F)c3c(c2)OC(c2cc4c(s2)C(C)(C)CC4)n2c-3cc3cc(-c4cnc([C@@H]5CCCN5C(=O)[C@@H](NC(=O)OC)C(C)C)[nH]4)ccc32)[nH]1)C(C)C` (single isomer, unassigned) [Compound 392], the IC50 in the assay on HCV replicon 1AY93H (setting [7]) turned out to be 0.0514 nM; in the assay with HCV replicon 2B (setting [8]), 0.373 nM; with HCV replicon 1A (replicon 1A), 0.0038 nM.
On to `COCc1ccc(C2Oc3cc(-c4cnc([C@@H]5CCCN5C(=O)[C@@H](NC(=O)OC)C(C)C)[nH]4)cc(F)c3-c3cc4cc(-c5cnc([C@@H]6CCCN6C(=O)[C@@H](NC(=O)OC)[C@@H]6C[C@@H](C)O[C@@H](C)C6)[nH]5)ccc4n32)s1` (single isomer, unassigned) [Compound 535], for which the IC50 was determined as 0.0295 nM with HCV replicon 1AY93H (setting [1]), 0.0736 nM in the assay on HCV replicon 2B (setting [2]) and 0.00895 nM in the assay with HCV replicon 1A (HCV replicon 1A).
As for `COC(=O)N[C@H](C(=O)N1C[C@H](F)C[C@H]1c1ncc(-c2ccc3c(c2)cc2n3C(c3cc4ccccc4s3)Oc3cc(-c4cnc([C@@H]5CCCN5C(=O)[C@@H](NC(=O)OC)C5CCOCC5)[nH]4)ccc3-2)[nH]1)C(C)C` (single isomer, unassigned) [Compound 623], the values for the IC50 with HCV replicon 1AY93H (setting [1]), with HCV replicon 2B (setting [2]) and with HCV replicon 1A (setting [5]) were 0.0213 nM, 0.345 nM and 0.0024 nM, respectively.
`CCc1ccc(C2Oc3cc(-c4cnc([C@@H]5CCCN5C(=O)[C@@H](NC(=O)OC)C(C)C)[nH]4)cc(F)c3-c3cc4cc(-c5cnc([C@@H]6C[C@H]7C[C@H]7N6C(=O)C(NC(=O)OC)C6CCOC(C)(C)C6)[nH]5)ccc4n32)s1` (single isomer, unassigned) [Compound 199]: the IC50 came out at 26.5 nM with HCV replicon 1AY93H (setting [6]); 33.3 nM in the assay with HCV replicon 2B (read-out: 2B IC50, replicon 2B); 0.118 nM in the assay with HCV replicon 1A (replicon 1A).
As for `CCc1ccc(C2Oc3cc(-c4cnc([C@@H]5CCCN5C(=O)[C@@H](NC(=O)OC)C(C)C)[nH]4)cc(F)c3-c3cc4cc(-c5cnc([C@@H]6CCCN6C(=O)C(NC(=O)OC)C6CCOC(C)(C)C6)[nH]5)ccc4n32)s1` (single isomer, unassigned) [Compound 149], the IC50 in the assay on HCV replicon 1AY93H (setting [6]) turned out to be 25.9 nM; with HCV replicon 2B (read-out: 2B IC50, replicon 2B), 24.8 nM; with HCV replicon 1A (replicon 1A) it was 0.129 nM.
The like results for `CCc1ccc(C2Oc3cc(-c4cnc([C@@H]5CCCN5C(=O)[C@@H](NC(=O)OC)C(C)C)[nH]4)cc(F)c3-c3cc4cc(-c5cnc([C@@H]6C[C@H]7C[C@H]7N6C(=O)C(NC(=O)OC)C6CCOC(C)(C)C6)[nH]5)ccc4n32)s1` (single isomer, unassigned) [Compound 197] were, in that order, 0.1 nM, 0.47 nM and 0.0021 nM.
Regarding `COC(=O)N[C@H](C(=O)N1CCC[C@H]1c1ncc(-c2cc(F)c3c(c2)OC(c2ccc(CC(C)C)s2)n2c-3cc3cc(-c4cnc([C@@H]5CCCN5C(=O)[C@@H](NC(=O)OC)C(C)C)[nH]4)ccc32)[nH]1)C(C)C` (single isomer, unassigned) [Compound 522], the IC50 amounted to 0.0776 nM in the assay on HCV replicon 1AY93H (setting [1]), 0.417 nM in the assay on HCV replicon 2B (setting [2]) and 0.0239 nM with HCV replicon 1A (HCV replicon 1A).
For the compound `CCc1ccc(C2Oc3cc(-c4cnc([C@@H]5CCCN5C(=O)[C@@H](NC(=O)OC)C(C)C)[nH]4)cc(F)c3-c3cc4cc(-c5cnc([C@@H]6C[C@H]7C[C@H]7N6C(=O)C(NC(=O)OC)C6C[C@@H](C)O[C@@H](C)C6)[nH]5)ccc4n32)s1` (single isomer, unassigned) [Compound 194], the IC50 with HCV replicon 1AY93H (setting [7]) was 0.095 nM; in the assay on HCV replicon 2B (setting [8]), 0.63 nM; with HCV replicon 1A (Hepatitis C virus, replicon 1A), 0.0019 nM.
In the case of `COC(=O)NC(C(=O)N1CCC[C@H]1c1ncc(-c2ccc3c(c2)cc2n3C(c3ccc(C4CC4)s3)Oc3cc(-c4cnc([C@@H]5C[C@H]6C[C@H]6N5C(=O)[C@@H](NC(=O)OC)C(C)C)[nH]4)cc(F)c3-2)[nH]1)C1C[C@@H](C)O[C@@H](C)C1` (single isomer, unassigned) [Compound 537], the half-maximal inhibitory concentration (IC50) is 0.114 nM with HCV replicon 1AY93H (setting [1]), 1.1 nM in the assay on HCV replicon 2B (setting [2]) and 0.00398 nM in the assay on HCV replicon 1A (HCV replicon 1A).
As to `COC(=O)NC(C(=O)N1CCC[C@H]1c1ncc(-c2ccc3c(c2)cc2n3C(c3ccc(C4CC4)s3)Oc3cc(-c4cnc([C@@H]5CCCN5C(=O)[C@@H](NC(=O)OC)C5CCOCC5)[nH]4)cc(F)c3-2)[nH]1)C(C)(C)F` (single isomer, unassigned) [Compound 174], the 50% inhibitory concentration (IC50) in the assay on HCV replicon 1AY93H (setting [6]) came out at 0.614 nM; in the assay on HCV replicon 2B (read-out: 2B IC50, replicon 2B), 0.16 nM; with HCV replicon 1A (replicon 1A) it was 0.0011 nM.

Source of the values: patent US20160257697A1, “THIOPHENE-SUBSTITUTED TETRACYCLIC COMPOUNDS AND METHODS OFUSE THEREOF FOR THE TREATMENT OF VIRAL DISEASES” (priority 2013, published 2016).
